Measured values published in US6218112A, “Optimization of gene delivery and gene delivery system” (Cobra Therapeutics Limited, priority 1997, dated 2001).
Where two headings read alike, the source gives them in different places. * marks the point of attachment. Acm = CC(=O)NC*

How the values were obtained:
Jurkat cell line = experiment: In vitro transfection with pRSVLuc (luciferase) condensed on peptides; format: cell-based; details: peptide 2 μg/μg plasmid DNA, luciferase after 24 h, FIG. 7
Protocol: After incubation the cells are lysed and are assayed for gene expression. In the case of the luciferase reporter gene, luciferin and ATP are added to lysed cells and the light emitted is measured with a luminometer (see deWet et al., supra).
Cell lines such as Jurkat and K562 grow in suspension and can be transfected and the level of transgene expression (luciferase activity) determined b) the following method. Cells are harvested on the day of assay by centrifugation at 1200 rpm for 5 mins at room temperature. The cell pellet is resuspended in phosphate buffered saline and re-centrifuged. This operation is performed twice. […] The cells are then aliquoted into tubes and 0.75 ml of RPMI medium added, followed by 0.04-0.08 ml of 100 mM Chloroquine and finally 0.25 ml of DNA-complex solution. The transfection is then allowed to proceed by incubating the cells at 37° C. for 4 h. After this time the cells are harvested by centrifugation at 2000 rpm. The cells are then suspended in 1 ml of RPMI medium and re-centrifuged. Finally the cells are suspended in 0.5 ml RPMI medium containing 10% foetal bovine serum. Each 0.5 ml of transfected cell suspension is transferred to a well of a 12 well plastic culture plate containing 1.5 ml of RPMI 10% FBS. The original transfection tube is rinsed with a further 1 ml of medium and the wash transferred to the culture dish making a final volume of 3 ml. The culture plate is then incubated at 37° C. for 24-90 h in an atmosphere of 5% CO2. The contents of each well in the culture dish are transferred to centrifuge tubes and the cells collected by centrifugation at 13000 rpm. The pellet is resuspended in 0.12 ml of Lysis Buffer (100 mM sodium phosphate, pH 7.8; 8 mM magnesium chloride, 1 mM EDTA; 1% Triton X-100 and 15% glycerol) and agitated with a pipette. The lysate is centrifuged at 13000 rpm for 1 min and the supernatant collected. 80 μl of the supernatant are transferred to a luminometer tube. The luciferase activity is then assayed using a Berthold Lumat L9501 luminometer. The assay buffer used is Lysis Buffer containing 10 mM Luciferin and 100 mM ATP. Light produced by the luciferase is integrated over 4s and is described as relative light units (RLU). The data are converted to RLU/ml of lysate, RLU/cell or RLU/mg protein (protein concentration of the lysate having been determined in this case by the BioRAD Lowry assay.
In order to compare the relative efficiency of transfection of complexes composed of different NBC condensation peptides or poly-L-lysine, pRSVLuc DNA at a concentration of 100 μg/ml was condensed using peptide at a ratio of 2 μg/μg plasmid DNA as described herein with the following deviation: prior to addition to the cells (Jurkat cell line) the complexes were diluted to 20 μg/ml with 10% PEG 10 000; 37 mM sodium chloride; 25 mM sodium phosphate, pH 7.4. The cells were assayed for luciferase after 24 h.

[1] = tested on: plasmid nucleic acid pRSVLuc; experiment: Surface plasmon resonance (BIAcore) binding kinetics of peptides/conjugates to immobilized biotinylated plasmid DNA; details: for ka: apparent rate constant for association; for Kd: read-out: equilibrium dissociation constant KD
cells = experiment: Transfection efficiency / activity of complexes (general statement); format: cell-based; details: related to affinity for nucleic acid

Substance | rank in order of relative transfection efficiency (most to least efficient) (Jurkat cell line) | ka ([1]; SPR, PBS, 25° C.) | kd ([1]; apparent rate constant for dissociation, SPR, PBS, 25° C.) | apparent dissociation constant kd ([1]; approximate values) | Kd ([1]; approximate values) | Kd ([1]; approximate value, unit inferred) | association reaction ([1]; shape of association kinetics) | transfection efficiency (cells)
NH2-KKSPKKAKKPAAKKSPKKAKKPAYC(Acm)-COOH (H-KKSPKKAKKPAAKKSPKKAKKPAYC(Acm)-OH; SMILES CC(=O)NCSC[C@H](NC(=O)[C@H](Cc1ccc(O)cc1)NC(=O)[C@H](C)NC(=O)[C@@H]1CCCN1C(=O)[C@H](CCCCN)NC(=O)[C@H](CCCCN)NC(=O)[C@H](C)NC(=O)[C@H](CCCCN)NC(=O)[C@H](CCCCN)NC(=O)[C@@H]1CCCN1C(=O)[C@H](CO)NC(=O)[C@H](CCCCN)NC(=O)[C@H](CCCCN)NC(=O)[C@H](C)NC(=O)[C@H](C)NC(=O)[C@@H]1CCCN1C(=O)[C@H](CCCCN)NC(=O)[C@H](CCCCN)NC(=O)[C@H](C)NC(=O)[C@H](CCCCN)NC(=O)[C@H](CCCCN)NC(=O)[C@@H]1CCCN1C(=O)[C@H](CO)NC(=O)[C@H](CCCCN)NC(=O)[C@@H](N)CCCCN)C(=O)O) [NBC8] | NBC11>NBC13>NBC8>>NBC15>>>polylysine | 50000 M⁻¹ s⁻¹ | 0.06248 s⁻¹ | approximately 1×10^-2 sec^-1 | ~1000 nM |  |  | 
NH2-TKKAWKKAEKKAAKKCGVSAKKAAKKAWKKA-CONH2 (H-TKKAWKKAEKKAAKKCGVSAKKAAKKAWKKA-NH2) [NBC11] | NBC11>NBC13>NBC8>>NBC15>>>polylysine | 20700 M⁻¹ s⁻¹ |  | approximately 1.6×10^-4 sec^-1 |  | ~0.5 nM | clear biphasic kinetics | not completely deleterious to transfection
